Results reported in patent publication US9937235B2, “Lipidated peptides as anti-obesity agents” (USTAV ORGANICKE CHEMIE A BIOCHEMIE AKADEMIE VED CR, V.V.I, priority 2012, dated 2018).
Where a SMILES comes first, the peptide text is derived from it. [ ]: non-standard residue; d: D form. The star is where a group is joined. 1Nal = N[C@@H](Cc1cccc2ccccc12)C(=O)O; Lauroyl = CCCCCCCCCCCC(=O)*; Nle = CCCC[C@H](N)C(=O)O; Octanoyl = CCCCCCCC(=O)*; Dap = NC[C@H](N)C(=O)O

Legend:
[1] = tested on: MAPK/ERK1/2 signaling pathway in RC-4B/C cells; assay: MAPK/ERK1/2 signaling in RC-4B/C cells (Western blot); type: cell-based, rat; conditions: 10^−6 mol·l^−1, 5 minute incubation
Method: RC-4B/C cells, which were used to determine if lipidated PrRP20 analogs are able to initiate the MAPK/ERK1/2 signaling pathway, were grown in 6-well plates up to the optimal density of […]. Seventeen hours before sample harvest, the growth medium was replaced by a serum-free medium lacking epidermal growth factor (EGF). The respective lipidated PrRP analog was added to each well in the final concentration of 10^−6 mol·l^−1. After a 5 minute incubation at 37° C., the plate was placed on ice and each well was rinsed three times with PBS pH 7.4 (137 mmol·l^−1 NaCl, 2.7 mmol·l^−1 KCl, 8 mmol·l^−1 Na2HPO4.2H2O a 1.76 mmol·l^−1 KH2PO4) and cooled to 4° C. […] Samples were collected in at least three independent experiments.
To determine if the lipidated PrRP20 analogs initiated the MAPK/ERK1/2 signaling pathway, Western blot analysis was used. Electrophoresis was performed on 5%/12% polyacrylamide gel in the presence of SDS (SDS-PAGE) on the instrument MiniProtean 3 (BioRad, Herkules, Calif., USA). Samples that were loaded on the gel were first disintegrated by ultrasound, then heated at 100° C. for 2 minutes, and centrifuged for 5 minutes at 500×g at room temperature. […] Electrophoresis was performed at a constant voltage of 100 V for 10 minutes, or for 60 minutes at 150 V.
To show the presence of phosphorylated proteins in the samples, the proteins from the SDS-PAGE gel were transferred to the Immobilon™-P PVDF (polyvinylidene difluoride) membrane (Sigma-Aldrich, USA). The transfer was performed in blotting buffer at pH 8.3 (25 mmol·l^−1 Tris, 192 mmol·l^−1 glycine and 20% methanol) for 20 hours at 4° C. at a constant voltage of 30 V.
After the protein transfer to the PVDF membrane, the membranes were washed for 5 minutes in TBS washing buffer (20 mmol·l^−1 Tris, 140 mmol·l^−1 NaCl and 0.1% Tween-20) and then incubated for 1 hour in blocking buffer (TBS with 5% non-fat milk powder and 5 mmol·l^−1 Na3VO4 and 50 mmol·l^−1 NaF) at room temperature. Further, the membranes were washed three times for 5 minutes using the TBS washing buffer. The membranes were then incubated with the primary antibody against phospho-p44/42 MAPK(Thr202/Tyr204) (Cell Signaling Technology, Beverly, USA) which was diluted in blocking buffer at 1:1000. After the next three washes with the TBS washing buffer for 5 minutes, the membranes were incubated for 1 hour with rabbit secondary antibody labeled with peroxidase (Sigma, St. Louis, USA) which was diluted in blocking buffer at 1:12,000.
The membranes were then washed three times in TBS washing buffer for 5 minutes and then the solution Femto (Pierce SuperSignal, Thermo Fisher Scientific, Rockford, Ill., USA) was applied. The induced chemiluminiscence was detected by a CCD camera (LAS 3000, Fuji Photo Film GmBH, Düsseldorf, Germany).
To assess the initiation of signaling pathways, a densitometric analysis using the program Quantity One (BioRad, Hercules, Calif., USA) was used. For statistical evaluation of the statistically significant response of the cellular signaling, one-way ANOVA with subsequent Dunnett post-hoc test was used. Data was statistically significant at P<0.05.

[2] = biological target: T1, rat PrRP receptor (GPR10) in RC-4B/C cells (Rattus norvegicus, UniProt Q64121); assay: Competitive binding to rat pituitary RC-4B/C cells; conditions: ^125I-rat PrRP31, RC-4B/C cells
T1 construct: host or cells: RC-4B/C rat pituitary cell line
T1 sequence (Q64121 1-370): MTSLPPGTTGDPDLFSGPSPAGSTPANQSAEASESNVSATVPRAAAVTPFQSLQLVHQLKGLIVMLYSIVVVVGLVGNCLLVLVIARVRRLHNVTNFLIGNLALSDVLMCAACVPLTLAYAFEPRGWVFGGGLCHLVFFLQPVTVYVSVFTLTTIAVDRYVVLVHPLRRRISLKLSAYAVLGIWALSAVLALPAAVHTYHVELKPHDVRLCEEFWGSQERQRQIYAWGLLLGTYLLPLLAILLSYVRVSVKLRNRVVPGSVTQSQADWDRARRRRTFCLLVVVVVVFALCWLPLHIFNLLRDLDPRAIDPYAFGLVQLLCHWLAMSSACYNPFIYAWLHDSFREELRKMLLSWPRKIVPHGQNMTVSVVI
Method: Competitive binding experiments were performed according to Motulsky and Neubig (Motulsky, A., et al., “Analyzing radioligand binding data,” Curr Protoc Neurosci, Chapter 7, Unit 7.5, 2002). The rat pituitary cell line RC-4B/C (ATCC, Manassas, USA) was grown on 24-well plates which had their bottom coated with polyethyleneimine. The cells were grown to the optimal density of 300-450 thousand per well. […] Plates were incubated for 60 minutes at room temperature. After incubation, the cells were solubilized in 0.1 mol/l solution of NaOH and the radioactivity bound to the cells was counted using a γ-counter. The experiments were performed in duplicate and repeated at least three times. For evaluation of competitive binding experiments, the program Graph Pad Prism Software (San Diego, Calif., USA) was used. A method of nonlinear regression assuming one-site binding was used.

fasted C57BL/6 mice = assay: Food intake in fasted mice after SC administration; type: in vivo, mouse; conditions: SC administration; for % control: food intake vs saline
Outline: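 Male C57BL/6 mice, food-deprived 17 h, received saline, PrRP or lipidated analogs either SC at 1-10 mg/kg or ICV into the third ventricle at 4 nmol/mouse.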

SMILES | ERK signaling [1] | % of PrRP31 binding [2] | food intake (fasted C57BL/6 mice; 45 minutes, 10 mg/kg) | % control (fasted C57BL/6 mice; 45 minutes, 10 mg/kg) | food intake (fasted C57BL/6 mice; 300 minutes, 10 mg/kg) | % control (fasted C57BL/6 mice; 300 minutes, 10 mg/kg) | food intake (fasted C57BL/6 mice; 45 minutes, 5 mg/kg) | % control (fasted C57BL/6 mice; 45 minutes, 5 mg/kg) | food intake (fasted C57BL/6 mice; 300 minutes, 5 mg/kg) | % control (fasted C57BL/6 mice; 300 minutes, 5 mg/kg)
CCCCCCCC(=O)NC[C@H](N)C(=O)N[C@@H](CCCNC(=N)N)C(=O)N[C@@H](C)C(=O)N[C@@H](Cc1c[nH]cn1)C(=O)N[C@@H](CCC(N)=O)C(=O)N[C@@H](Cc1c[nH]cn1)C(=O)N[C@@H](CO)C(=O)N[C@@H](CCCC)C(=O)N[C@@H](CCC(=O)O)C(=O)N[C@H](C(=O)N[C@@H](CCCNC(=N)N)C(=O)N[C@H](C(=O)N1CCC[C@H]1C(=O)N[C@@H](CC(=O)O)C(=O)N[C@H](C(=O)N[C@@H](CC(N)=O)C(=O)N1CCC[C@H]1C(=O)N[C@@H](C)C(=O)N[C@@H](Cc1c[nH]c2ccccc12)C(=O)N[C@@H](Cc1ccc(O)cc1)C(=O)N[C@H](C(=O)NCC(=O)N[C@@H](CCCNC(=N)N)C(=O)NCC(=O)N[C@H](C(=O)N[C@@H](CCCNC(=N)N)C(=O)N1CCC[C@H]1C(=O)N[C@H](C(=O)NCC(=O)N[C@@H](CCCNC(=N)N)C(=O)N[C@@H](Cc1ccccc1)C(N)=O)C(C)C)[C@@H](C)CC)[C@@H](C)O)[C@@H](C)CC)[C@@H](C)O)[C@@H](C)O [Analog 2] (H-[Dap](Octanoyl)RAHQHS[Nle]ETRTPDINPAWYTGRGIRPVGRF-NH2) | agonist | 172% |  |  |  |  |  |  |  | 
CCCC[C@H](NC(=O)[C@H](CO)NC(=O)[C@H](Cc1c[nH]cn1)NC(=O)[C@H](CCC(N)=O)NC(=O)[C@H](Cc1c[nH]cn1)NC(=O)[C@H](C)NC(=O)[C@H](CCCNC(=N)N)NC(=O)[C@@H](N)CN)C(=O)N[C@@H](CCC(=O)O)C(=O)N[C@H](C(=O)N[C@@H](CCCNC(=N)N)C(=O)N[C@H](C(=O)N1CCC[C@H]1C(=O)N[C@@H](CC(=O)O)C(=O)N[C@H](C(=O)N[C@@H](CC(N)=O)C(=O)N1CCC[C@H]1C(=O)N[C@@H](C)C(=O)N[C@@H](Cc1c[nH]c2ccccc12)C(=O)N[C@@H](Cc1ccc(O)cc1)C(=O)N[C@H](C(=O)NCC(=O)N[C@@H](CCCNC(=N)N)C(=O)NCC(=O)N[C@H](C(=O)N[C@@H](CCCNC(=N)N)C(=O)N1CCC[C@H]1C(=O)N[C@H](C(=O)NCC(=O)N[C@@H](CCCNC(=N)N)C(=O)N[C@@H](Cc1cccc2ccccc12)C(N)=O)C(C)C)[C@@H](C)CC)[C@@H](C)O)[C@@H](C)CC)[C@@H](C)O)[C@@H](C)O [Analog 7] (H-[Dap]RAHQHS[Nle]ETRTPDINPAWYTGRGIRPVGR[1Nal]-NH2) | agonist | 8% | 0.16 g | 49% | 0.88 g | 81% |  |  |  | 
CCCCCCCCCCCC(=O)NC[C@H](N)C(=O)N[C@@H](CCCNC(=N)N)C(=O)N[C@@H](C)C(=O)N[C@@H](Cc1c[nH]cn1)C(=O)N[C@@H](CCC(N)=O)C(=O)N[C@@H](Cc1c[nH]cn1)C(=O)N[C@@H](CO)C(=O)N[C@@H](CCCC)C(=O)N[C@@H](CCC(=O)O)C(=O)N[C@H](C(=O)N[C@@H](CCCNC(=N)N)C(=O)N[C@H](C(=O)N1CCC[C@H]1C(=O)N[C@@H](CC(=O)O)C(=O)N[C@H](C(=O)N[C@@H](CC(N)=O)C(=O)N1CCC[C@H]1C(=O)N[C@@H](C)C(=O)N[C@@H](Cc1c[nH]c2ccccc12)C(=O)N[C@@H](Cc1ccc(O)cc1)C(=O)N[C@H](C(=O)NCC(=O)N[C@@H](CCCNC(=N)N)C(=O)NCC(=O)N[C@H](C(=O)N[C@@H](CCCNC(=N)N)C(=O)N1CCC[C@H]1C(=O)N[C@H](C(=O)NCC(=O)N[C@@H](CCCNC(=N)N)C(=O)N[C@@H](Cc1ccccc1)C(N)=O)C(C)C)[C@@H](C)CC)[C@@H](C)O)[C@@H](C)CC)[C@@H](C)O)[C@@H](C)O [Analog 3] (H-[Dap](Lauroyl)RAHQHS[Nle]ETRTPDINPAWYTGRGIRPVGRF-NH2) | agonist | 440% |  |  |  |  | 0.12 g | 50% | 0.61 g | 60%
